Patent publication US8697730B2, “5-lipoxygenase activating protein (FLAP) inhibitor” (Panmira Pharmaceuticals, LLC, priority 2007, dated 2014)

Legend:
[1] = system: whole blood ionophore-stimulated leukotriene LTB4; experiment: Phase 1 study, whole blood ionophore-stimulated LTB4; type: in vivo, human; details: clinical trial summary
Protocol: (§1) Pharmacodynamics: Whole blood ionophore-stimulated leukotriene LTB4 and urinary LTE4 production are assayed by ELISA and mass spectrometry, respectively.
(§2) Obtain pre-dose fasting blood samples for hematology determinations. Obtain pre-dose fasting blood samples for serum chemistry determinations. Obtain pre-dose blood samples (5 mL EDTA and 4 mL heparinized) for baseline PK and LTB4. Collect ‘spot’ urine prior to study drug administration for baseline (pre-dose) LTE4. Administer study drug. […] Collect blood samples (2 mL heparinized) for LTB4 at 0.5, 1, 2, 3, 4, 6, 8, and 12 hours. Collect urine for LTE4 for the following separate intervals: 0-3, 3-6, 6-9, and 9-12 hours. For twice daily dosing group (if conducted): administer study drug 12 hours±30 minutes after prior dose, preceded by ≧2 hours fast.
(§3) Obtain pre-dose fasting blood samples for hematology determinations. Obtain pre-dose fasting blood samples for serum chemistry determinations. […] Collect blood samples (2 mL heparinized) for LTB4 at 24 hours after the first study drug administration; 4 mL blood will be collected at this time point in the Single Dose Phase. Collect ‘spot’ urine sample for LTE4 at 24 and 36 hours after first study drug administration.
(§4) Obtain pre-dose blood samples (5 mL EDTA and 2 mL heparinized) for PK and LTB4. Collect pre-dose urine for LTE4. Administer study drug (last dose of drug). […] Collect blood samples (2 mL heparinized) for LTB4 at 0.5, 1, 2, 3, 4, 6, 8, and 12 hours. Collect urine for LTE4 for the following separate intervals: 0-3, 3-6, 6-9, and 9-12 hours after study drug administration.
(§5) Record vital signs 24 hours after Day 11 study drug administration. […] Collect blood sample (4 mL heparinized) for LTB4 at 24 hours after Day 11 study drug administration. Collect ‘spot’ urine sample for LTE4 at 24 hours after Day 11 study drug administration.
(§6) Whole blood ionophore-stimulated leukotriene LTB4 and urinary LTE4 production were assayed by ELISA and mass spectrometry, respectively.

urinary LTE4 production = experiment: Phase 1 study, urinary LTE4; type: in vivo, human; details: clinical trial summary
Protocol: as §1, §2, §3, §4, §5, §6

CYP2C9 = details: tested at 10 μM; diclofenac substrate
[2] = system: allergen-induced early and late phases of lung-volume decline; details: clinical trials / allergen-challenge studies; cited from earlier work
[3] = Aqueous solubility determination (thermodynamic solubility); details: for Appearance of mixture after equilibration for 24 hours: suspended in 0.25 mL of water, 25° C.; for pH of saturated solution / Concentration of filtrate (as mg/ml of free base): water, equilibrated at 25° C. for 24 hours; for Concentration of filtrate (as mg/ml of free base): HPLC
[4] = Gravimetric Vapor Sorption (GVS); details: 25° C.; for hygroscopicity in words: GVS; for total weight change: between 0% RH and 90% RH
pH solubility profile = type: physicochemical; details: about 25° C.
[5] = Storage stability of polymorphs; type: physicochemical; details: for change after 1 week storage (crystallinity / x-ray powder diffraction pattern, colour): 1 week at 40° C. and 75% RH
chronic asthma = chronic asthma studies; cited from earlier work
[6] = Cycle 1, Scan 1, Adsorption, % RH load to 40
[7] = Cycle 1, Scan 2, Adsorption, % RH 0 to 40
[8] = Cycle 1, Scan 2, Adsorption, % RH 40 to 90
[9] = Cycle 1, Scan 2, Desorption, % RH 90 to 0
[10] = Cycle 2, Scan 3, Adsorption, % RH 40 to 90
[11] = Cycle 2, Scan 4, Adsorption, % RH 0 to 40
[12] = Cycle 2, Scan 4, Desorption, % RH 90 to 0

## COc1ccc(-c2ccc(Cn3c(CC(C)(C)C(=O)O)c(SC(C)(C)C)c4cc(OCc5ccccn5)ccc43)cc2)cn1
[1]
  effect on LTB4 levels in humans, in words: lowers
Urinary LTE4 production
  effect on LTE4 levels in humans, in words: lowers

## COc1ccc(-c2ccc(Cn3c(CC(C)(C)C(=O)O)c(SC(C)(C)C)c4cc(OCc5ccccn5)ccc43)cc2)cn1 [3-[5-(pyridin-2-ylmethoxy)-3-(2-methyl-2-propylthio)-1-[4-(2]
CYP2C9
  CYP2C9 induction in words: not an inducer

## O=C(O)[C@@H](c1ccc(OCc2ccc3ccccc3n2)cc1)C1CCCC1 [BAYX-1005, (R)-2-[4-(quinolin-2-yl-methoxy)phenyl]-2-cyclopentyl acetic acid]
[2]
  efficacy in words: shown efficacy

## COc1ccc(-c2ccc(Cn3c(CC(C)(C)C(=O)O)c(SC(C)(C)C)c4cc(OCc5ccccn5)ccc43)cc2)cn1 [Crystalline Free Acid]
[3]
  Appearance of mixture after equilibration for 24 hours: Suspension
  pH of saturated solution: 7.88
  Concentration of filtrate (as mg/ml of free base): 0.0019 mg/mL
[4]
  stability to changes in humidity (XRPD after GVS experiment): stable to changes in humidity
[4]; Cycle 1, Scan 1, Adsorption, % RH load to 40, listed as crystalline 3-[5-(pyridin-2-ylmethoxy)-3-(2-methyl-2-propylthio)-1-[4-(2-methoxy)
  % weight change: 0.00%
[4]; Cycle 1, Scan 2, Adsorption, % RH 0 to 40, listed as crystalline 3-[5-(pyridin-2-ylmethoxy)-3-(2-methyl-2-propylthio)-1-[4-(2-methoxy)
  % weight change: 0.07%
[4]; Cycle 1, Scan 2, Adsorption, % RH 40 to 90, listed as crystalline 3-[5-(pyridin-2-ylmethoxy)-3-(2-methyl-2-propylthio)-1-[4-(2-methoxy)
  % weight change: 0.34%
[4]; Cycle 1, Scan 2, Desorption, % RH 90 to 0, listed as crystalline 3-[5-(pyridin-2-ylmethoxy)-3-(2-methyl-2-propylthio)-1-[4-(2-methoxy)
  % weight change: −0.42%
[4]; Cycle 2, Scan 3, Adsorption, % RH 40 to 90, listed as crystalline 3-[5-(pyridin-2-ylmethoxy)-3-(2-methyl-2-propylthio)-1-[4-(2-methoxy)
  % weight change: 0.29%
[4]; Cycle 2, Scan 4, Adsorption, % RH 0 to 40, listed as crystalline 3-[5-(pyridin-2-ylmethoxy)-3-(2-methyl-2-propylthio)-1-[4-(2-methoxy)
  % weight change: 0.08%
[4]; Cycle 2, Scan 4, Desorption, % RH 90 to 0, listed as crystalline 3-[5-(pyridin-2-ylmethoxy)-3-(2-methyl-2-propylthio)-1-[4-(2-methoxy)
  % weight change: −0.40%
[4]; listed as Crystalline 3-[5-(pyrid-2-ylmethoxy)-3-(2-methyl-2-propylthio)-1-[4-(2-methoxypy)
  hygroscopicity in words: not hygroscopic

## COc1ccc(-c2ccc(Cn3c(CC(C)(C)C(=O)O)c(SC(C)(C)C)c4cc(OCc5ccccn5)ccc43)cc2)cn1 [Form B]
[3]
  Appearance of mixture after equilibration for 24 hours: Fine Suspension
  pH of saturated solution: 9.95
  Concentration of filtrate (as mg/ml of free base): 5.4 mg/mL
[4]
  stability to changes in humidity (XRPD after GVS experiment): stable to changes in humidity
  hygroscopicity in words: very hygroscopic
  total weight change: 26%
[4]; [6]
  % weight change: −1.54%
[4]; [7]
  % weight change: 3.73%
[4]; [8]
  % weight change: 20.92%
[4]; [9]
  % weight change: −25.51%
[4]; [10]
  % weight change: 20.72%
[4]; [11]
  % weight change: 3.66%
[4]; [12]
  % weight change: −24.45%
pH solubility profile; pH about 1.1
  Concentration (mg/mL): about 0.690 mg/mL
pH solubility profile; pH about 4.9
  Concentration (mg/mL): about 0.0594 mg/mL
pH solubility profile; pH about 8.8
  Concentration (mg/mL): about 0.00573 mg/mL
pH solubility profile; pH about 9.2
  Concentration (mg/mL): about 9.80 mg/mL
pH solubility profile; pH about 9.8
  Concentration (mg/mL): about 53.1 mg/mL
pH solubility profile; pH about 10.4
  Concentration: >70000 µg/mL
[5]
  change after 1 week storage (crystallinity / x-ray powder diffraction pattern, colour): loses its crystallinity and the colour changes to yellow
[5]; conditions not stated
  physical and chemical stability: physically and chemically stable

## COc1ccc(-c2ccc(Cn3c(CC(C)(C)C(=O)O)c(SC(C)(C)C)c4cc(OCc5ccccn5)ccc43)cc2)cn1 [Form C]
[3]
  aqueous solubility compared between forms: more soluble than Form B and the crystalline free acid
  Appearance of mixture after equilibration for 24 hours: Fine Suspension
  pH of saturated solution: 10.05
  Concentration of filtrate (as mg/ml of free base): >10 mg/mL
[4]
  stability to changes in humidity (XRPD after GVS experiment): stable to changes in humidity
  hygroscopicity in words: hygroscopic
  total weight change: 16%
[4]; [6]
  % weight change: −0.37%
[4]; [7]
  % weight change: 1.98%
[4]; [8]
  % weight change: 13.83%
[4]; [9]
  % weight change: −16.23%
[4]; [10]
  % weight change: 14.52%
[4]; [11]
  % weight change: 2.01%
[4]; [12]
  % weight change: −16.51%
[5]
  change after 1 week storage (crystallinity / x-ray powder diffraction pattern, colour): No change
[5]; 5° C., 25° C./60% RH and 40° C./75% RH for at least two months
  physical and chemical stability: physically and chemically stable

## CC(C)(C)Sc1c(CC(C)(C)C(=O)O)n(Cc2ccc(Cl)cc2)c2ccc(OCc3ccc4ccccc4n3)cc12 [MK-0591, 3-[1-(4-chlorobenzyl)-3-(tert-butylthio)-5-(quinolin-2-ylmethoxy)indol-2-yl]-2,2-dimethyl propanoic acid]
[2]
  efficacy in words: shown efficacy
Chronic asthma
  efficacy in words: shown efficacy

## CC(C)c1ccc2c(c1)c(SC(C)(C)C)c(CC(C)(C)C(=O)O)n2Cc1ccc(Cl)cc1 [MK-866, 3-[1-(4-chlorobenzyl)-3-(tert-butylthio)-5-(isopropyl)-indol-2-yl]-2,2-dimethyl propanoic acid]
[2]
  efficacy in words: shown efficacy
